The test system of the assay is nude mice, LX-1 lung xenograft intrarenal, tumor weight T/C. The experiment in a line: NCI In Vivo Anticancer Drug Screen. Data for tumor model Human Lung LX-1 Xenograft (intrarenal inoculation) in NU/NU Swiss (nude) mice. The settings on record: endpoint: mean tumor weight change, higher = larger tumour. The gist of the method:
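Activity was scored by measuring tumors in treated animals and in vehicle controls, then reporting the treated result as a fraction of the control result.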
For orientation: In xenograft studies the graft and the host belong to different species.

Where [1] appears, read: dose: 150.0 mg/kg/injection, schedule: Q04DX003 (sc), vehicle: suspension in saline.
The mark [2] stands for this setting: dose: 300.0 mg/kg/injection, schedule: Q04DX003 (sc), vehicle: suspension in saline.
Setting [3] is: dose: 600.0 mg/kg/injection, schedule: Q04DX003 (sc), vehicle: suspension in saline.
Where [4] appears, read: dose: 1200.0 mg/kg/injection, schedule: Q04DX003 (sc), vehicle: suspension in saline.
Where [5] appears, read: dose: 200.0 mg/kg/injection, schedule: Q04DX003 (sc), vehicle: saline with Tween-80.
Setting [6] is: dose: 400.0 mg/kg/injection, schedule: Q04DX003 (sc), vehicle: saline with Tween-80.
Where [7] appears, read: dose: 800.0 mg/kg/injection, schedule: Q04DX003 (sc), vehicle: saline with Tween-80.
Setting [8] is: dose: 300.0 mg/kg/injection, schedule: Q04DX003 (sc), vehicle: saline.
The mark [9] stands for this setting: dose: 600.0 mg/kg/injection, schedule: Q04DX003 (sc), vehicle: saline.
Where [10] appears, read: dose: 1200.0 mg/kg/injection, schedule: Q04DX003 (sc), vehicle: saline.
The mark [11] stands for this setting: dose: 75.0 mg/kg/injection, schedule: Q04DX003 (sc), vehicle: saline.
[12] abbreviates: dose: 150.0 mg/kg/injection, schedule: Q04DX003 (sc), vehicle: saline.
Setting [13] is: dose: 1.5 mg/kg/injection, schedule: Q04DX003 (sc), vehicle: saline.
Where [14] appears, read: dose: 3.0 mg/kg/injection, schedule: Q04DX003 (sc), vehicle: saline.
[15] abbreviates: dose: 0.5 mg/kg/injection, schedule: Q01DX010 (sc), vehicle: saline.
The mark [16] stands for this setting: dose: 1.0 mg/kg/injection, schedule: Q01DX010 (sc), vehicle: saline.
The mark [17] stands for this setting: dose: 300.0 mg/kg/injection, schedule: Q04DX003 (sc), vehicle: Klucel (hydroxypropylcellulose) (HPC).
The mark [18] stands for this setting: dose: 600.0 mg/kg/injection, schedule: Q04DX003 (sc), vehicle: Klucel (hydroxypropylcellulose) (HPC).
The mark [19] stands for this setting: dose: 1200.0 mg/kg/injection, schedule: Q04DX003 (sc), vehicle: Klucel (hydroxypropylcellulose) (HPC).
The mark [20] stands for this setting: dose: 2400.0 mg/kg/injection, schedule: Q04DX003 (sc), vehicle: Klucel (hydroxypropylcellulose) (HPC).

SMILES strings stand for the structures. “And” between values parts separate entries of the source, which are not always exact repeats. Identical values can stand only once. Inconclusive results are not listed.

As for `NC(=S)c1ncn(C2OC(CO)C(O)C2O)c1N` (stereo not drawn), the T/C was 87 % of control under setting [1], 102 % of control under setting [2], 98 % of control under setting [3] and 103 % of control under setting [4].
As to `CC1=C(C)C(=O)O[C@@H]([C@](C)(O)[C@]2(O)CC[C@@]3(O)[C@@H]4C[C@H]5O[C@]56CC=CC(=O)[C@]6(C)[C@H]4CC[C@]23C)C1`, the T/C is 112 % of control under setting [1], 84 % of control under setting [2], 46 % of control under setting [3] and 81 % of control under setting [4].
Turning to `Cc1ccc(N)c(N)c1`, the T/C under setting [5] was 57 % of control, the T/C under setting [6] was 74 % of control and the T/C under setting [7] is 57 % of control.
For `NC(=O)c1ncn(C2OC(CO)C(O)C2O)n1` (stereo not drawn), the T/C under setting [8] was 85 % of control, the T/C under setting [9] was 95 % of control and the T/C under setting [10] was 42 % of control.
Turning to `Cn1cnc([N+](=O)[O-])c1Sc1ncn[nH]1`, the T/C was 96 % of control (dose: 100.0 mg/kg/injection, schedule: Q04DX003 (sc), vehicle: suspension in saline); 96 % of control (dose: 200.0 mg/kg/injection, schedule: Q04DX003 (sc), vehicle: suspension in saline); 32 % of control (dose: 400.0 mg/kg/injection, schedule: Q04DX003 (sc), vehicle: suspension in saline).
For `COc1cccc2c1C(=O)c1c(O)c3c(c(O)c1C2=O)C[C@H](O)C[C@@H]3OC1CC(N)C(O)C(C)O1` (stereo partly drawn), the T/C is 25 % of control (dose: 6.25 mg/kg/injection, schedule: Q01DX010 (sc), vehicle: saline); 336 % of control (dose: 12.5 mg/kg/injection, schedule: Q01DX010 (sc), vehicle: saline); 101 % of control (dose: 25.0 mg/kg/injection, schedule: Q01DX010 (sc), vehicle: saline).
On to `Cc1cc2cc3cc(C)c(N)cc3nc2cc1N`, for which the T/C was 77 % of control (dose: 100.0 mg/kg/injection, schedule: Q04DX003 (sc), vehicle: saline with Tween-80); 51 % of control under setting [5]; 63 % of control under setting [6]; 95 % of control under setting [7].
As to `Nc1ncnc2c1ccn2C1OC(CO)C(O)C1O` (stereo not drawn), the T/C (dose: 1.0 mg/kg/injection, schedule: Q01DX010 (sc), vehicle: Klucel (hydroxypropylcellulose) (HPC)) is 85 % of control; the T/C (dose: 2.0 mg/kg/injection, schedule: Q01DX010 (sc), vehicle: Klucel (hydroxypropylcellulose) (HPC)) is 101 % of control; the T/C (dose: 4.0 mg/kg/injection, schedule: Q01DX010 (sc), vehicle: Klucel (hydroxypropylcellulose) (HPC)) was 53 % of control.
Regarding `N=C1CCCS1`, the T/C reads like this: (dose: 18.75 mg/kg/injection, schedule: Q04DX003 (sc), vehicle: saline) 121 % of control; (dose: 37.5 mg/kg/injection, schedule: Q04DX003 (sc), vehicle: saline) 87 % of control; under setting [11], 113 % of control.
On to `CN(C)N=Nc1ccccc1`, for which the T/C is, setting by setting: (dose: 12.5 mg/kg/injection, schedule: Q01DX010 (sc), vehicle: Klucel (hydroxypropylcellulose) (HPC)) 12 % of control; (dose: 50.0 mg/kg/injection, schedule: Q01DX010 (sc), vehicle: Klucel (hydroxypropylcellulose) (HPC)) -98 % of control.
For `OCC12COCN1COC2`, the T/C by setting is: under setting [11], 102 % of control; under setting [12], 115 % of control.
For `CO[C@@]12[C@H](COC(N)=O)C3=C(C(=O)C(C)=C(N)C3=O)N1C[C@@H]1N[C@@H]12`, the T/C by setting is: (dose: 0.63 mg/kg/injection, schedule: Q04DX003 (sc), vehicle: saline) 98 % of control; (dose: 1.25 mg/kg/injection, schedule: Q04DX003 (sc), vehicle: saline) 32 % of control and 40 % of control and 42 % of control; under setting [13], 42 % of control; under setting [14], 14 % of control and 16 % of control (2×); (dose: 3.0 mg/kg/injection, schedule: Q04DX003 (sc), vehicle: suspension in saline) 3 % of control; (dose: 6.0 mg/kg/injection, schedule: Q04DX003 (sc), vehicle: suspension in saline) -55 % of control. Where the note is “dose: 12.0 mg/kg/injection, schedule: Q04DX003 (sc), vehicle: saline”, the T/C is -76 % of control.
As to `COC(=O)C[C@](O)(CCCC(C)(C)O)C(=O)O[C@@H]1C(OC)=C[C@]23CCCN2CCc2cc4c(cc2[C@H]13)OCO4`, the T/C by setting is: under setting [15], 115 % of control; under setting [16], 61 % of control.
In the case of `O=c1ncccn1[C@@H]1O[C@H](CO)[C@H](O)C1O` (stereo partly drawn), the T/C is 100 % of control under setting [8]; 56 % of control under setting [9]; 55 % of control under setting [10]; 47 % of control (dose: 2400.0 mg/kg/injection, schedule: Q04DX003 (sc), vehicle: saline).
For the molecule `Cc1ccc(C2NC(=S)N3C(c4ccc(C)cc4)NC(=S)N23)cc1` (stereo not drawn), the T/C by setting is: under setting [17], 64 % of control; under setting [18], 66 % of control; under setting [19], 80 % of control; under setting [20], 65 % of control.
In the case of `CCC(=O)O[C@H]1CC[C@H]2[C@@H]3CCC4=CC(=O)CC[C@]4(C)[C@H]3CC[C@]12C`, the T/C is 77 % of control under setting [17], 59 % of control under setting [18], 65 % of control under setting [19] and 69 % of control under setting [20].
For the molecule `CN=C(N)N/N=C(\C)c1ccc2oc3ccc(/C(C)=N/NC(N)=NC)cc3c2c1`, the T/C (dose: 75.0 mg/kg/injection, schedule: Q04DX003 (sc), vehicle: saline with Tween-80) is 89 % of control and the T/C (dose: 150.0 mg/kg/injection, schedule: Q04DX003 (sc), vehicle: saline with Tween-80) was 65 % of control.
Take `CCOC(=O)C(C)(C)Oc1ccc(Cl)cc1`: the T/C is, setting by setting: (dose: 300.0 mg/kg/injection, schedule: Q04DX003 (sc), vehicle: saline with Tween-80) 73 % of control; (dose: 600.0 mg/kg/injection, schedule: Q04DX003 (sc), vehicle: saline with Tween-80) 97 % of control; (dose: 1200.0 mg/kg/injection, schedule: Q04DX003 (sc), vehicle: saline with Tween-80) 81 % of control.
For the molecule `Oc1ccc(CCl)c2cccnc12`, the T/C is 91 % of control under setting [11], 78 % of control under setting [12] and 46 % of control under setting [8].
`COc1cc([C@@H]2c3cc4c(c(O)c3C[C@H]3COC(=O)[C@@H]32)OCO4)cc(OC)c1OC`: the T/C (dose: 0.25 mg/kg/injection, schedule: Q01DX010 (sc), vehicle: saline) was 91 % of control; the T/C under setting [15] is 50 % of control; the T/C under setting [16] is 58 % of control; the T/C (dose: 2.0 mg/kg/injection, schedule: Q01DX010 (sc), vehicle: saline) was 71 % of control and 73 % of control; the T/C (dose: 4.0 mg/kg/injection, schedule: Q01DX010 (sc), vehicle: saline) was 117 % of control; the T/C (dose: 8.0 mg/kg/injection, schedule: Q01DX010 (sc), vehicle: saline) was 168 % of control.
Consider `CSCS(=O)C[C@H](CO)NC(=O)/C=C/c1c(C)[nH]c(=O)[nH]c1=O` (stereo partly drawn), for which the T/C (dose: 0.75 mg/kg/injection, schedule: Q04DX003 (sc), vehicle: saline) is 76 % of control; the T/C under setting [13] was 70 % of control; the T/C under setting [14] was 68 % of control.
For `CN=S(=O)(OCCCCCOS(=O)(=NC)c1ccccc1)c1ccccc1` (stereo not drawn), the T/C under setting [5] was 36 % of control, the T/C under setting [6] is 77 % of control and the T/C under setting [7] is 57 % of control.
With `O=C(Nc1ccc(C2=NCCN2)cc1)c1ccc(C(=O)Nc2ccc(C3=NCCN3)cc2)c(Cl)c1`, the T/C (dose: 12.5 mg/kg/injection, schedule: Q01DX010 (sc), vehicle: water) was 74 % of control; the T/C (dose: 25.0 mg/kg/injection, schedule: Q01DX010 (sc), vehicle: water) is 71 % of control; the T/C (dose: 50.0 mg/kg/injection, schedule: Q01DX010 (sc), vehicle: water) was 34 % of control.

For the origin of these results see PubChem BioAssay AID264 (DTP/NCI, 2004).
